# Data published in US5164390A, “6-substituted purinyl piperazine derivatives” (Ortho Pharmaceutical Corporation, priority 1991, dated 1992).
# Read-outs that look alike come from different tables or passages of the source.
# Test system: Adult mongrel dogs
# Experiment: Cardiotonic activity: hemodynamic and inotropic responses (MAP, HR, dP/dt, contractile force) in anesthetized dogs, iv infusion
# Assay type: in vivo, mongrel dog
# Settings: Canis lupus familiaris; for ED50: dose producing a 50% increase above baseline in myocardial contractile force, iv, read-out: contractile force (CF) ED50
# Description: Adult mongrel dogs were anesthetized with sodium pentobarbital (45 mg/kg, i.p.) and artificially respired. Mean arterial pressure (MAP) was recorded from a cannulated femoral artery and drugs were infused into a cannulated femoral vein. The arterial pressure pulse was used to trigger a cardiotachometer for determination of heart rate (HR). Left ventricular pressure was measured with a Millar catheter and dP/dtmax was derived. A right thoracotomy was performed and myocardial contractile force (CF) was measured with a Walton Brodie strain gauge sutured to the right ventricle. The ventricular muscle was stretched to produce a baseline tension of 100 g. A standard dose of dopamine (10-15 ug/kg/min for 3 min) was administered to determine myocardial responsiveness to inotropic stimulation.
# Test compounds were solubilized in a small volume of DMF diluted to a final concentration of 10% in physiological saline. Alternatively, where possible, a soluble hydrochloride salt was prepared by addition of 0.1N HCl diluted in physiological saline. Vehicles were tested in appropriate volumes and found to exert less than a 5% effect on contractile force. For iv studies, compounds were administered by infusion pump (one drug per animal) at rates of 0.58-2.2 mL/min in three to four stepwise increasing doses. Each dose was infused over 5 min immediately after the effect of the previous dose peaked. MAP, HR, dP/dtmax and CF responses were continuously monitored on a Beckman or Gould recorder and expressed as a percent change from pre-drug control values vs. the cumulative dose of drug administered. For these studies, n represents the number of test animals used.
# Quantitation of the inotropic potency was obtained by calculation of the contractile force (CF) ED50. This was defined as the dose of compound that produced a 50% increase above baseline in myocardial contractile force. The value was obtained from three to four point dose-response curves using either graphical estimation (n<3) or linear regression analysis (n≥3). Numbers in parentheses are number of animals screened.
# [1] = Table 1, 1.875 mg/kg iv, cumulative dose, read-out: CF (myocardial contractile force), % from Control
# [2] = Table 1, 1.875 mg/kg iv, cumulative dose, read-out: HR (heart rate), % from Control
# [3] = Table 1, 1.875 mg/kg iv, cumulative dose, read-out: MAP (mean arterial pressure), % from Control
# [4] = Table 1, 1.875 mg/kg iv, cumulative dose, read-out: dPdt (left ventricular dP/dtmax), % from Control
# [5] = range in parentheses on next line
# [6] = Table 2, 1.875 mpk iv, read-out: CF (myocardial contractile force), percent change from pre-drug control
# [7] = Table 2, 1.875 mpk iv, read-out: HR (heart rate), percent change from pre-drug control
# [8] = Table 2, 1.875 mpk iv, read-out: MAP (mean arterial pressure), percent change from pre-drug control
# [9] = Table 2, 1.875 mpk iv, read-out: dP/dt (left ventricular dP/dtmax), percent change from pre-drug control
SMILES,change in vivo at 1.875 mg/kg [1],change in vivo at 1.875 mg/kg [2],change in vivo at 1.875 mg/kg [3],change in vivo at 1.875 mg/kg [4],ED50 [5],ED50,change in vivo at 1.875 mg/kg [6],change in vivo at 1.875 mg/kg [7],change in vivo at 1.875 mg/kg [8],change in vivo at 1.875 mg/kg [9]
"OC(CSc1ncnc2[nH]cnc12)CN1CCN(C(c2ccc(F)cc2)c2ccc(F)cc2)CC1 (stereo not shown) [Example 1, 6-[1-[1-[Bis(4-fluorophenyl)methyl]piperazine-4-yl]-2-hydroxy-3-propanylthio]purine Hemihydrate]",214%,1%,-5%,127%,0.16 mg/kg,–,–,–,–,–
"O[C@H](CSc1ncnc2nc[nH]c12)CN1CCN(C(c2ccc(F)cc2)c2ccc(F)cc2)CC1 [Example 2, (2S)-(+)-6-[1-[1-[Bis(4-fluorophenyl)methyl]piperazin-4-yl]-2-hydroxy-3-propanylthio]purine]",212%,-6%,-13%,168%,0.07 mg/kg,–,–,–,–,–
"O[C@@H](CSc1ncnc2nc[nH]c12)CN1CCN(C(c2ccc(F)cc2)c2ccc(F)cc2)CC1 [Example 3, (2R)-(-)-6-[1-[1-[Bis(4-fluorophenyl)methyl]piperazin-4-yl]-2-hydroxy-3-propanylthio]purine]",151%,-8%,-4%,91%,0.35 mg/kg,–,–,–,–,–
"OC(CSc1ncnc2[nH]cnc12)CN1CCN(C(c2ccccc2)c2ccccc2)CC1 (stereo not shown) [Example 4, 6-[2-Hydroxy-3-(1-(diphenylmethyl)piperazin-4-yl)propan-1-yl]triopurine Hemihydrate]",86%,-1%,-12%,60%,–,–,–,–,–,–
"OC(CSc1ncnc2[nH]cnc12)CN1CCN(Cc2ccccc2)CC1 (stereo not shown) [Example 5, 6-[1-[1-(Benzyl)piperazin-4-l]-2-hydroxy-3-propanylthio]purine Monomalonate.cndot.5/2 Hydrate]",43%,5%,-3%,58%,–,–,–,–,–,–
"OC(CSc1ncnc2[nH]cnc12)CN1CCN(Cc2ccc3c(c2)OCO3)CC1 (stereo not shown) [Example 6, 6-[3-[4-(1,3-Benzodioxol-5-yl)methyl]piperazin-1-yl]-2-hydroxyprop-1-ylthio]purine Sesquihydrate]",79%,15%,4%,80%,–,–,–,–,–,–
"OC(CSc1ncnc2[nH]cnc12)CN1CCN(C(c2ccccc2)c2ccc(Cl)cc2)CC1 (stereo not shown) [Example 7, 6-[1-[1-(4-Chlorobenzhydryl)]piperazin-4-yl]-2-hydroxy-3-propanylthio]purine Monohydrate]",97%,0%,1%,75%,–,–,–,–,–,–
"OC(CSc1ncnc2[nH]cnc12)CN1CCN(C(c2ccc(C(F)(F)F)cc2)c2cccc(C(F)(F)F)c2)CC1 (stereo not shown) [Example 10, 6-[1-[1-(3,4'[Bis(trifluoromethylphenyl)methyl])piperazin-4-yl]-2-hydroxy-3-propanylthio]purine]",71%,0%,5%,47%,–,–,–,–,–,–
"CC(=O)OC(CSc1ncnc2[nH]cnc12)CN1CCN(C(c2ccc(F)cc2)c2ccc(F)cc2)CC1 (stereo not shown) [Example 11, 6-[1-[1-[Bis(4-fluorophenyl)methyl]piperazin-4-yl]-2-acetoxy-3-propanylthio]purine 3/4 Hydrate]",145%,-4%,-12%,62%,–,0.45 mg/kg,–,–,–,–
"Fc1ccc(C(c2ccc(F)cc2)N2CCN(CCCSc3ncnc4nc[nH]c34)CC2)cc1 [Example 14, 6-[1-[1-[Bis(4-fluorophenyl)methyl]piperazin-4-yl]-3-propanylthio]purine]",38%,2%,-6%,17%,–,–,–,–,–,–
"OC(CSc1ncnc2[nH]cnc12)CN1CCC(=C(c2ccc(F)cc2)c2ccc(F)cc2)CC1 (stereo not shown) [Example 15, 6-[1-[4-[Bis(4'-fluorophenyl)methylene]-1-piperidinyl]-2-hydroxy-3-propanylthio]purine Hemihydrate]",87%,-7%,-14%,28%,–,0.725 mg/kg,–,–,–,–
"OC(CSc1ncnc2[nH]cnc12)CN1CCN(C(c2ccc(Cl)cc2)c2ccc(Cl)cc2)CC1 (stereo not shown) [Example 16, 6-[1-[1-[Bis(4-chlorophenyl)methyl]piperazin-4-yl]-2 hydroxy-3-propanylthio]purine.cndot.5/4 Hydrate]",151%,-4%,9%,99%,–,0.608 mg/kg,–,–,–,–
OC(COc1ncnc2c1ncn2C1CCCCO1)CN1CCN(C(c2ccc(F)cc2)c2ccc(F)cc2)CC1 (stereo not shown) [Example 17],37%,0%,-13%,16%,–,–,–,–,–,–
"OC(COc1ncnc2[nH]cnc12)CN1CCN(C(c2ccc(F)cc2)c2ccc(F)cc2)CC1 (stereo not shown) [Example 18, 6-[3-[4-Bis(4-fluorophenyl)methyl]piperazin-1-yl-2-hydroxy]propoxypurine]",80%,12%,4%,58%,–,0.825 mg/kg,–,–,–,–
OC(COc1ncnc2c1ncn2C1CCCCO1)CN1CCN(C(c2ccccc2)c2ccccc2)CC1 (stereo not shown) [Example 19],43%,3%,2%,19%,–,–,–,–,–,–
"OC(COc1ncnc2nc[nH]c12)CN1CCN(C(c2ccccc2)c2ccccc2)CC1 (stereo not shown) [Example 20, 6-[3-[4-(Diphenylmethyl)piperazin-1-yl]-2-hydroxypropoxy]-purine]",66%,2%,4%,36%,–,–,–,–,–,–
"OC(CSc1ncnc2[nH]cnc12)CN1CCN(C(c2cccc(C(F)(F)F)c2)c2cccc(C(F)(F)F)c2)CC1 (stereo not shown) [Example 23, 6-[1-[1-[Bis(3-trifluoromethylphenyl)methyl]piperazin-4-yl]-2-hydroxy-3-propanylthio]purine Hemihydrate]",–,–,–,–,–,–,44%,-7%,7%,30%
"OC(CSc1ncnc2[nH]c(-c3ccccc3)nc12)CN1CCN(C(c2ccc(F)cc2)c2ccc(F)cc2)CC1 (stereo not shown) [Example 24, 6-[1-[1-[Bis(4-fluorophenyl)methyl]piperazin-4-yl]-2-hydroxy-3-propanylthio]-8-phenylpurine.cndot.1/3Hydrate]",–,–,–,–,–,–,12%,4%,-3%,5%
"Nc1nc(SCC(O)CN2CCN(C(c3ccc(F)cc3)c3ccc(F)cc3)CC2)c2nc[nH]c2n1 (stereo not shown) [Example 25, 2-Amino-6-[1-[1-bis(4-fluorophenyl)methyl]piperazin-4-yl]-2-hydroxy-3-propanyl-thio]purine Hemihydrate]",–,–,–,–,–,–,84%,9%,-15%,23%
"COC(=O)CCn1cnc2c(SCC(CN3CCN(C(c4ccc(F)cc4)c4ccc(F)cc4)CC3)OC(C)=O)ncnc21 (stereo not shown) [Example 26, 6-[1-[1-[Bis(4-fluorophenyl)methyl]piperazin-4-yl-]-2-acetoxy-3-propanylthio]purin-9-yl-3-propanoic acid, methyl ester]",–,–,–,–,–,–,34%,-3%,-10%,29%
"CCN(CC(O)CN1CCN(C(c2ccc(F)cc2)c2ccc(F)cc2)CC1)c1ncnc2nc[nH]c12 (stereo not shown) [Example 27, 6-[3-[4-[Bis(4-fluorophenyl)methyl]piperazin-1-yl]-2-hydroxypropyl-N-ethylamino]purine]",–,–,–,–,–,–,10%,6%,3%,14%
